Assay results: PubChem BioAssay (NCI)
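All cell lines were grown in 96-well plates and treated with compound for 48 hours. GI50 = concentration required for 50% inhibition of growth. TGI denotes the concentration required for complete inhibition of growth.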 Where a SMILES comes first, the peptide text is derived from it. The star is where a group is joined. Cbz = O=C(OCc1ccccc1)*

Legend:
Assay in all cases: NCI-60 cell line screen, 48 h
HCT-15 colon = system: HCT-15 colon
M14 melanoma = system: M14 melanoma
MDA-MB-435 = system: MDA-MB-435
OVCAR-8 ovarian = system: OVCAR-8 ovarian
SF-268 CNS = system: SF-268 CNS
SK-MEL-5 melanoma = system: SK-MEL-5 melanoma
SK-OV-3 ovarian = system: SK-OV-3 ovarian
OVCAR-5 ovarian = system: OVCAR-5 ovarian
HOP-92 NSCLC = system: HOP-92 NSCLC
SF-295 CNS = system: SF-295 CNS

| Structure (SMILES) | TGI (HCT-15 colon) [µM] | TGI (M14 melanoma) [µM] | TGI (MDA-MB-435) [µM] | TGI (OVCAR-8 ovarian) [µM] | TGI (SF-268 CNS) [µM] | TGI (SK-MEL-5 melanoma) [µM] | TGI (SK-OV-3 ovarian) [µM] | TGI (OVCAR-5 ovarian) [µM] | TGI (HOP-92 NSCLC) [µM] | TGI (SF-295 CNS) [µM] | GI50 (SF-268 CNS) [µM] | GI50 (SK-MEL-5 melanoma) [µM] |
| --- | --- | --- | --- | --- | --- | --- | --- | --- | --- | --- | --- | --- |
| CC(=O)Oc1ccc2c(c1)O/C(=C\c1ccc(N(C)C)cc1)C2=O | > 100 | > 100 | > 100 | > 100 | > 100 | > 100 | > 100 |  |  |  |  |  |
| COc1cc(OC)c(-n2[nH]c(=O)n(C)c2=O)c(OC)c1 | > 100 | > 100 | > 100 | > 100 | > 100 |  | > 100 | > 100 |  |  |  |  |
| CC(C)C(Sc1nc(-c2ccccc2)c(-c2ccccc2)[nH]1)C(=O)N/N=C/c1ccc(Cl)cc1 (centres undefined) | 59.3 | 33.7 |  | 53.6 | 57.6 | 30.5 | 67 | 52.4 | 54.2 | 47.5 |  |  |
| COC(=O)C1=C(C(=O)OC)C23CC4CCC2(C(=O)C1O3)C4(C)C (centres undefined) | > 100 | > 100 |  | > 100 | > 100 | > 100 | > 100 | > 100 | > 100 | > 100 |  |  |
| CCN(CC)P(=O)(c1ccc2c(c1)OCCOCCOCCOCCO2)N(CC)CC | > 100 | > 100 | > 100 | > 100 | > 100 | > 100 | > 100 |  |  | > 100 |  |  |
| Cc1ccccc1NC(=O)C(=O)C(C1OC(=O)c2ccccc21)[N+](=O)[O-] (centres undefined) | > 100 | > 100 |  | > 100 | > 100 | > 100 | > 100 | > 100 | > 100 | > 100 |  |  |
| Fc1ccc(F)c(C=NC23CC4CC(CC(C4)C2)C3)c1 | > 10 | > 10 |  | > 10 | > 10 | > 10 | > 10 | > 10 | > 10 | > 10 |  |  |
| OC1C2CN3CCN(C2)CC1(c1ccccc1)C3 (centres undefined) |  |  | > 100 | > 100 | > 100 | > 100 |  | > 100 |  | > 100 |  |  |
| COc1ccc(/C=C2\C(=O)N(C(=O)c3ccc(NC(C)=O)cc3)N=C2C)cc1OC | > 100 | > 100 |  | > 100 | > 100 | > 100 |  | > 100 |  | > 100 |  |  |
| O=[N+]([O-])C(/C(Cl)=C(/Cl)N1CCOCC1)=C1\Nc2ccccc2O1 | > 100 | > 100 | > 100 | > 100 | > 100 |  | > 100 | > 100 |  | > 100 |  |  |
| COC(=O)C12CCCN1CCC2 | > 100 | > 100 | > 100 |  | > 100 | > 100 | > 100 | > 100 |  | > 100 |  |  |
| CC(C)(C)c1ccc(O)c(C(O)c2ccccn2)c1 (centres undefined) | > 100 |  | > 100 | > 100 | > 100 |  |  | 89.6 |  | > 100 |  |  |
| O=c1[nH]nc(-c2ccc3ccccc3c2)[nH]1 | > 100 | > 100 | > 100 | > 100 | > 100 |  |  | > 100 |  | > 100 |  |  |
| CCOC(=O)CCC(NC(=O)C(CC(=O)OC)NC(=O)OCc1ccccc1)C(=O)NC(CC(=O)OC)C(=O)NC(CCC(=O)OCC)C(=O)NC(CC(=O)OC)C(=O)NC(CCC(=O)OCC)C(=O)NC(CC(=O)OCC)C(=O)OCC (centres undefined) (Cbz-D(OMe)E(OEt)D(OMe)E(OEt)D(OMe)E(OEt)D(OEt)-OEt; configuration not given here) | > 100 |  | > 100 | > 100 |  | > 100 |  | > 100 |  |  |  |  |
| CC(C)NC1CCCCC2c3ccccc3C12O (centres undefined) | > 100 | > 100 |  | > 100 | > 100 | > 100 | > 100 |  |  | > 100 |  |  |
| [N-]=[N+]=NC1C(Cl)C(=O)NC(=O)N1[C@H]1C[C@H](O)[C@@H](CO)O1 (some centres undefined) |  | > 100 |  | > 100 | > 100 | > 100 | > 100 | > 100 | > 100 | > 100 | 94 | 12.3 |
| O=NN(CC1(O)OCC(O)C(O)C1O)C(Cc1c[nH]c2ccccc12)C(=O)O (centres undefined) |  | > 100 |  | > 100 |  | > 100 | > 100 | > 100 | > 100 |  |  |  |
| Cc1cnoc1/N=C1\C=C(Nc2oncc2C)C(=O)c2ccccc21 | > 100 | > 100 |  | > 100 | > 100 | > 100 | > 100 | > 100 | > 100 | > 100 |  |  |
| Cc1c2ccccc2c(=O)n2c(-c3ccccn3)cccc12 | > 100 | > 100 |  | > 100 | > 100 | > 100 | > 100 |  | > 100 | > 100 |  |  |
| Cc1cc2c(cc1Cl)SSc1cc(Cl)c(C)cc1S(=O)(=O)Nc1nc(N)nn1C(O)n1nc(N)nc1NS2(=O)=O | > 10 | > 10 |  | > 10 | > 10 | > 10 | > 10 | > 10 | > 10 | > 10 |  |  |
